Test results from patent publication US20060241172A1, “Benzodioxane and benzodioxolane derivatives and uses thereof” (Wyeth, priority 2005, published 2006).
Structures can show the parent of a compound that is named as a salt.

Molecular target: T1, human 5-HT2C receptor (Homo sapiens, UniProt P28335)
T1 sequence (P28335 33-458): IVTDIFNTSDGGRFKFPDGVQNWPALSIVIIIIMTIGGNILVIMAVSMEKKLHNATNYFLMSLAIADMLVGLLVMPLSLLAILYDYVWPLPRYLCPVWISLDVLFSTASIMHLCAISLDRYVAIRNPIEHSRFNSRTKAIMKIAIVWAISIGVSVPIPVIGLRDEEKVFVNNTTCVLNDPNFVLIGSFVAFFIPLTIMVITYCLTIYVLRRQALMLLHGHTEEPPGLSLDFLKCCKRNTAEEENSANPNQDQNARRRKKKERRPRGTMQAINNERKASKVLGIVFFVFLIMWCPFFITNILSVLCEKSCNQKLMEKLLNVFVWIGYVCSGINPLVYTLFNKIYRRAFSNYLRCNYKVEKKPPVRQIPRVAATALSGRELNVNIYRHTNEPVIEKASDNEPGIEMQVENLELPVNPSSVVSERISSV
Assay: 5-HT2C receptor-stimulated calcium mobilization (FLIPR) in CHO cells
Assay type: cell-based
Details: CHO; read-out: 5-HT2C Function EMax (%)

Row | Emax [%] | Structure (SMILES)
1 | 60 | CNCC1COc2cccc(-c3ccccc3C)c2O1 (centres unmarked) [Compound I-17, N-Methyl-N-{[8-(2-methylphenyl)-2,3-dihydro-1,4-benzodioxin-2-yl]methyl}amine]
2 | 40 | CNCC1COc2cccc(-c3cccc(Cl)c3Cl)c2O1 (centres unmarked) [Compound I-22, {[8-(2,3-Dichlorophenyl)-2,3-dihydro-1,4-benzodioxin-2-yl]methyl}methylamine]
3 | 30 | CNCC1COc2cccc(-c3cccc(C)c3C)c2O1 (centres unmarked) [Compound I-25, {[8-(2,3-Dimethylphenyl)-2,3-dihydro-1,4-benzodioxin-2-yl]methyl}methylamine]
4 | 50 | CNCC1COc2cccc(-c3cc(C)ccc3C)c2O1 (centres unmarked) [Compound I-26, {[8-(2,5-Dimethylphenyl)-2,3-dihydro-1,4-benzodioxin-2-yl]methyl}methylamine]
5 | 20 | CNCC1COc2cccc(-c3cccc(F)c3F)c2O1 (centres unmarked) [Compound I-27, {[8-(2,3-Difluorophenyl)-2,3-dihydro-1,4-benzodioxin-2-yl]methyl}methylamine]
6 | 30 | CNCC1COc2cccc(-c3ccc(F)cc3F)c2O1 (centres unmarked) [Compound I-28, {[8-(2,4-Difluorophenyl)-2,3-dihydro-1,4-benzodioxin-2-yl]methyl}methylamine]

Same assay, conditions: read-out: 5-HT2C Function EC50

Row | EC50 [nM] | Structure (SMILES)
7 | < 100 | CNCC1COc2cccc(-c3ccccc3C)c2O1 (centres unmarked) [Compound I-17, N-Methyl-N-{[8-(2-methylphenyl)-2,3-dihydro-1,4-benzodioxin-2-yl]methyl}amine]
8 | < 100 | CNCC1COc2cccc(-c3cccc(Cl)c3Cl)c2O1 (centres unmarked) [Compound I-22, {[8-(2,3-Dichlorophenyl)-2,3-dihydro-1,4-benzodioxin-2-yl]methyl}methylamine]
9 | > 500 | CNCC1COc2cccc(-c3cccc(C)c3C)c2O1 (centres unmarked) [Compound I-25, {[8-(2,3-Dimethylphenyl)-2,3-dihydro-1,4-benzodioxin-2-yl]methyl}methylamine]
10 | < 100 | CNCC1COc2cccc(-c3cc(C)ccc3C)c2O1 (centres unmarked) [Compound I-26, {[8-(2,5-Dimethylphenyl)-2,3-dihydro-1,4-benzodioxin-2-yl]methyl}methylamine]
11 | 100 to 500 | CNCC1COc2cccc(-c3cccc(F)c3F)c2O1 (centres unmarked) [Compound I-27, {[8-(2,3-Difluorophenyl)-2,3-dihydro-1,4-benzodioxin-2-yl]methyl}methylamine]
12 | > 500 | CNCC1COc2cccc(-c3ccc(F)cc3F)c2O1 (centres unmarked) [Compound I-28, {[8-(2,4-Difluorophenyl)-2,3-dihydro-1,4-benzodioxin-2-yl]methyl}methylamine]
13 | > 500 | CNCC1COc2cccc(-c3cc(F)ccc3F)c2O1 (centres unmarked) [Compound I-29, {[8-(2,5-Difluorophenyl)-2,3-dihydro-1,4-benzodioxin-2-yl]methyl}methylamine]

Same assay, conditions: reference compounds; read-out: EC50

Row | Structure (SMILES) | EC50 [nM]
14 | Cc1cc2c(cc1Cl)N(C(=O)Nc1ccc(Oc3cccnc3C)nc1)CC2 [SB242084, reference compound] | 0.01

System: not given
Assay: not given
Details: not given

Row | Structure (SMILES) | melting point [°C]
15 | NCC1COc2cccc(-c3ccccc3Cl)c2O1 (centres unmarked) (as salt: fumarate) [Compound I-1, {[8-(2-Chlorophenyl)-2,3-dihydro-1,4-benzodioxin-2-yl]methyl}amine] | 210 to 211
16 | NCC1COc2cccc(-c3ccccc3F)c2O1 (centres unmarked) (as salt: fumarate) [Compound I-2, {[8-(2-Fluorophenyl)-2,3-dihydro-1,4-benzodioxin-2-yl]methyl}amine] | 188 to 190
17 | Cc1ccccc1-c1cccc2c1OC(CN)CO2 (centres unmarked) (as salt: fumarate) [Compound I-3, {[8-(2-Methylphenyl)-2,3-dihydro-1,4-benzodioxin-2-yl]methyl}amine] | 201 to 202
18 | NCC1COc2cccc(-c3ccccc3C(F)(F)F)c2O1 (centres unmarked) (as salt: fumarate) [Compound I-4, ({8-[2-(Trifluoromethyl)phenyl]-2,3-dihydro-1,4-benzodioxin-2-yl}methyl)amine] | 208 to 209
19 | COc1ccccc1-c1cccc2c1OC(CN)CO2 (centres unmarked) (as salt: fumarate) [Compound I-5, {[8-(2-Methoxyphenyl)-2,3-dihydro-1,4-benzodioxin-2-yl]methyl}amine] | 186 to 187
20 | NCC1COc2cccc(-c3cccc(Cl)c3Cl)c2O1 (centres unmarked) (as salt: fumarate) [Compound I-6, {[8-(2,3-Dichlorophenyl)-2,3-dihydro-1,4-benzodioxin-2-yl]methyl}amine] | 211 to 212
21 | NCC1COc2cccc(-c3ccc(Cl)cc3Cl)c2O1 (centres unmarked) (as salt: fumarate) [Compound I-7, {[8-(2,4-Dichlorophenyl)-2,3-dihydro-1,4-benzodioxin-2-yl]methyl}amine] | 192 to 193
22 | NCC1COc2cccc(-c3cc(Cl)ccc3Cl)c2O1 (centres unmarked) (as salt: fumarate) [Compound I-8, {[8-(2,5-Dichlorophenyl)-2,3-dihydro-1,4-benzodioxin-2-yl]methyl}amine] | 206 to 207
23 | COc1cccc(-c2cccc3c2OC(CN)CO3)c1OC (centres unmarked) (as salt: fumarate) [Compound I-9, {[8-(2,3-Dimethoxyphenyl)-2,3-dihydro-1,4-benzodioxin-2-yl]methyl}amine] | 198 to 199
24 | Cc1cccc(-c2cccc3c2OC(CN)CO3)c1C (centres unmarked) (as salt: fumarate) [Compound I-10, {[8-(2,3-Dimethylphenyl)-2,3-dihydro-1,4-benzodioxin-2-yl]methyl}amine] | 204 to 205
25 | Cc1ccc(C)c(-c2cccc3c2OC(CN)CO3)c1 (centres unmarked) (as salt: fumarate) [Compound I-11, {[8-(2,5-Dimethylphenyl)-2,3-dihydro-1,4-benzodioxin-2-yl]methyl}amine] | 199 to 200
26 | Cc1cccc(C)c1-c1cccc2c1OC(CN)CO2 (centres unmarked) (as salt: fumarate) [Compound I-12, {[8-(2,6-Dimethylphenyl)-2,3-dihydro-1,4-benzodioxin-2-yl]methyl}amine] | 205 to 206
27 | NCC1COc2cccc(-c3cccc(F)c3F)c2O1 (centres unmarked) (as salt: fumarate) [Compound I-13, {[8-(2,3-Difluorophenyl)-2,3-dihydro-1,4-benzodioxin-2-yl]methyl}amine] | 189 to 190
28 | NCC1COc2cccc(-c3ccc(F)cc3F)c2O1 (centres unmarked) (as salt: fumarate) [Compound I-14, {[8-(2,4-Difluorophenyl)-2,3-dihydro-1,4-benzodioxin-2-yl]methyl}amine] | 183 to 184
29 | NCC1COc2cccc(-c3cc(F)ccc3F)c2O1 (centres unmarked) (as salt: fumarate) [Compound I-15, {[8-(2,5-Difluorophenyl)-2,3-dihydro-1,4-benzodioxin-2-yl]methyl}amine] | 189 to 190
30 | COc1ccc(Cl)cc1-c1cccc2c1OC(CN)CO2 (centres unmarked) (as salt: fumarate) [Compound I-16, {[8-(5-Chloro-2-methoxyphenyl)-2,3-dihydro-1,4-benzodioxin-2-yl]methyl}amine] | 192 to 193
31 | CNCC1COc2cccc(-c3ccccc3C)c2O1 (centres unmarked) (as salt: fumarate) [Compound I-17, N-Methyl-N-{[8-(2-methylphenyl)-2,3-dihydro-1,4-benzodioxin-2-yl]methyl}amine] | 177 to 178

Continued, values first:

Row | melting point [°C] | Structure (SMILES)
32 | 191 to 192 | CNCC1COc2cccc(-c3ccccc3F)c2O1 (centres unmarked) (as salt: fumarate) [Compound I-18, {[8-(2-Fluorophenyl)-2,3-dihydro-1,4-benzodioxin-2-yl]methyl}methylamine]
33 | 168 to 169 | CNCC1COc2cccc(-c3ccccc3OC)c2O1 (centres unmarked) (as salt: fumarate) [Compound I-19, {[8-(2-Methoxyphenyl)-2,3-dihydro-1,4-benzodioxin-2-yl]methyl}methylamine]
34 | 184 to 185 | CNCC1COc2cccc(-c3ccccc3C(F)(F)F)c2O1 (centres unmarked) (as salt: fumarate) [Compound I-20, N-Methyl-1-{8-[2-(trifluoromethyl)phenyl]-2,3-dihydro-1,4-benzodioxin-2-yl}methanamine]
35 | 174 to 175 | CNCC1COc2cccc(-c3ccccc3Cl)c2O1 (centres unmarked) (as salt: fumarate) [Compound I-21, {[8-(2-Chlorophenyl)-2,3-dihydro-1,4-benzodioxin-2-yl]methyl}methylamine]
36 | 184 to 185 | CNCC1COc2cccc(-c3cccc(Cl)c3Cl)c2O1 (centres unmarked) (as salt: fumarate) [Compound I-22, {[8-(2,3-Dichlorophenyl)-2,3-dihydro-1,4-benzodioxin-2-yl]methyl}methylamine]
37 | 194 to 195 | CNCC1COc2cccc(-c3cccc(C)c3C)c2O1 (centres unmarked) (as salt: fumarate) [Compound I-25, {[8-(2,3-Dimethylphenyl)-2,3-dihydro-1,4-benzodioxin-2-yl]methyl}methylamine]
38 | 174 to 175 | CNCC1COc2cccc(-c3cc(C)ccc3C)c2O1 (centres unmarked) (as salt: fumarate) [Compound I-26, {[8-(2,5-Dimethylphenyl)-2,3-dihydro-1,4-benzodioxin-2-yl]methyl}methylamine]
39 | 181 to 182 | CNCC1COc2cccc(-c3cccc(F)c3F)c2O1 (centres unmarked) (as salt: fumarate) [Compound I-27, {[8-(2,3-Difluorophenyl)-2,3-dihydro-1,4-benzodioxin-2-yl]methyl}methylamine]
40 | 174 to 175 | CNCC1COc2cccc(-c3ccc(F)cc3F)c2O1 (centres unmarked) (as salt: fumarate) [Compound I-28, {[8-(2,4-Difluorophenyl)-2,3-dihydro-1,4-benzodioxin-2-yl]methyl}methylamine]
41 | 193 to 194 | CNCC1COc2cccc(-c3cc(F)ccc3F)c2O1 (centres unmarked) (as salt: fumarate) [Compound I-29, {[8-(2,5-Difluorophenyl)-2,3-dihydro-1,4-benzodioxin-2-yl]methyl}methylamine]
42 | 159 to 160 | CNCC1COc2cccc(-c3cccc(OC)c3OC)c2O1 (centres unmarked) (as salt: fumarate) [Compound I-30, {[8-(2,3-Dimethoxyphenyl)-2,3-dihydro-1,4-benzodioxin-2-yl]methyl}methylamine]
43 | 172 to 173 | CNCC1COc2cccc(-c3cc(Cl)ccc3OC)c2O1 (centres unmarked) (as salt: fumarate) [Compound I-31, {[8-(5-Chloro-2-methoxyphenyl)-2,3-dihydro-1,4-benzodioxin-2-yl]methyl}methylamine]
44 | 179 to 180 | CCNCC1COc2cccc(-c3ccc(Cl)cc3Cl)c2O1 (centres unmarked) (as salt: fumarate) [Compound I-33, N-{[8-(2,4-Dichlorophenyl)-2,3-dihydro-1,4-benzodioxin-2-yl]methyl}ethanamine]
